According to PMC12481929, “Oral delivery of teriparatide utilizing biocompatible transferrin-engineered MOF nanoparticles for osteoporosis therapy” (Materials Today Bio, 2025):

Experiments:
[1] = In vivo pharmacokinetics, serum TRP by ELISA; conditions: osteoporotic mice
Method: The pharmacokinetics and pharmacodynamics of M@P@T NPs were evaluated using the osteoporosis mice model. Mice were randomly divided into three experimental groups, with five mice per group: TRP SC, M@P, and M@P@T. M@P NPs (200 μg kg^−1) and M@P@T NPs (200 μg kg^−1) were administered by oral gavage, while TRP (20 μg kg^−1) was injected subcutaneously. Serum TRP concentrations were measured using an ELISA kit. Blood samples were collected at 0, 0.5, 1, 1.5, 2, 3, 6, 8, and 12 h post-administration to determine TRP concentration. The area under the serum TRP concentration−time curve (AUC) was calculated to determine the relative bioavailability of M@P@T. The pharmacokinetic parameters of M@P@T were then compared to those of TRP SC and M@P groups.

[2] = system: osteoporosis model mice (OVX); experiment: New bone formation in vivo, micro-CT of femurs; conditions: one month, M@P@T 200 μg kg^−1 oral, TRP 20 μg kg^−1 SC daily
Method: This study was approved by the Animal Ethics Committee of Wuhan University (ethics number WP20230395), and all animal experiments were conducted in accordance with the Regulations on the Management of Experimental Animals in China and the guidelines of the Committee for Animal Care and Use at Wuhan University. In this study, 6-week-old female C57 mice (purchased from Beijing HFK Bioscience Co., Ltd.) were randomly divided into five groups (Sham, OVX, M@P, M@P@T, and TRP SC). Bilateral ovariectomy was performed via a dorsal incision to establish an osteoporosis model. In the Sham group, the same volume of fat tissue was removed bilaterally. After surgery, the mice were regularly given penicillin and pain medication. All mice were housed in a comfortable environment at 22–25 °C and […] and had free access to food and water. The successful construction of the osteoporosis model was confirmed two months after surgery via micro–computed tomography (micro-CT).
To validate the in vivo efficacy of the NPs, we measured various bone parameters related to the formation of new bone and its internal structure using micro-CT (SkyScan 1276) following the ASBMR reporting standards. […] The efficacy of new bone formation was assessed by comparing these parameters determined from the control and treatment groups.

CC[C@H](C)[C@H](NC(=O)[C@H](CCC(=O)O)NC(=O)[C@H](CO)NC(=O)[C@@H](NC(=O)[C@@H](N)CO)C(C)C)C(=O)N[C@@H](CCC(N)=O)C(=O)N[C@@H](CC(C)C)C(=O)N[C@@H](CCSC)C(=O)N[C@@H](Cc1cnc[nH]1)C(=O)N[C@@H](CC(N)=O)C(=O)N[C@@H](CC(C)C)C(=O)NCC(=O)N[C@@H](CCCCN)C(=O)N[C@@H](Cc1cnc[nH]1)C(=O)N[C@@H](CC(C)C)C(=O)N[C@@H](CC(N)=O)C(=O)N[C@@H](CO)C(=O)N[C@@H](CCSC)C(=O)N[C@@H](CCC(=O)O)C(=O)N[C@@H](CCCN=C(N)N)C(=O)N[C@H](C(=O)N[C@@H](CCC(=O)O)C(=O)N[C@@H](Cc1c[nH]c2ccccc12)C(=O)N[C@@H](CC(C)C)C(=O)N[C@@H](CCCN=C(N)N)C(=O)N[C@@H](CCCCN)C(=O)N[C@@H](CCCCN)C(=O)N[C@@H](CC(C)C)C(=O)N[C@@H](CCC(N)=O)C(=O)N[C@@H](CC(=O)O)C(=O)N[C@H](C(=O)N[C@@H](Cc1cnc[nH]1)C(=O)N[C@@H](CC(N)=O)C(=O)N[C@@H](Cc1ccccc1)C(=O)O)C(C)C)C(C)C [TRP, teriparatide]
time to return to the baseline level ([1]; 20 μg kg^−1 SC): ≤ 2 h
Tmax ([1]; mouse, in vivo, 20 ug/kg, 20 μg kg^−1 SC, read-out: time of peak plasma concentration of TRP): 30 min
AUC(0-t) ([1]; mouse, sc, 20 ug/kg, n = 5, TRP 20 µg/kg s.c., M@P and M@P@T 200 µg/kg oral, serum TRP ELISA, 0-12 h, mean ± SD): 0.117 ± 0.0112 ng·h/mL
F, relative bioavailability ([1]; n = 5, relative to TRP 20 µg/kg s.c., oral 200 µg/kg): 100%
new bone formation (3D reconstruction) [2]: more new bone formation than the other groups
